Assay results published in patent US10988478B1, “Pyrazolo[1,5a]pyrimidine derivatives as IRAK4 modulators” (Genentech, Inc., priority 2015, dated 2021).
pKi: −log10 of the molar value.

These compounds were tested against human IRAK4 (Homo sapiens (Human), UniProt Q9NWZ3) (assay: IRAK4 kinase inhibition, Transcreener fluorescence polarization ADP assay). Settings: recombinant full-length His6-IRAK4; 125 uM ATP; 90 min; Ki computed using ATP Km 642 uM.
Format: biochemical
Procedure: Compounds were assayed for inhibition of human IRAK4 and IRAK1 catalytic activity using recombinant enzyme produced from insect cells. Full-length IRAK4 protein, carrying an N-terminal His6-Tag, was obtained from Life Technologies (Carlsbad, Calif., USA). The IRAK1 construct was produced internally and was comprised of IRAK1 residues Arg194 to Ser712, preceded by an NH2-terminal His6 tag and the coding sequence for glutathione-S-transferase.

human IRAK4, sequence (Q9NWZ3 whole entry): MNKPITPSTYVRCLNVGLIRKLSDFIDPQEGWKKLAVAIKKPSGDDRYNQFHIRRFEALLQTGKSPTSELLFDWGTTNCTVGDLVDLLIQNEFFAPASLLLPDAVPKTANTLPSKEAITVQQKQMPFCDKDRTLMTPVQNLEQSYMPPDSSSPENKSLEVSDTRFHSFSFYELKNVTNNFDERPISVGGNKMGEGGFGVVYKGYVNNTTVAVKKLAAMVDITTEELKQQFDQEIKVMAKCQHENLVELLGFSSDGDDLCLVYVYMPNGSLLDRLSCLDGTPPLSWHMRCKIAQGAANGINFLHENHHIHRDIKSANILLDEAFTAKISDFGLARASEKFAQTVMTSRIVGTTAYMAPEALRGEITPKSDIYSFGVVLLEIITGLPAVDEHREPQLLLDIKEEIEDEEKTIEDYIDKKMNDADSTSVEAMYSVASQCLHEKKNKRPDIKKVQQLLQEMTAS

First: CC(C)(O)[C@]1(C)Cc2cc(NC(=O)c3cnn4cccnc34)c(O[C@H]3CC[C@@H](O)CC3)cc2O1 [Example 312, N-[(2S)-6-(cis-4-Hydroxycyclo-hexoxy)-2-(1-hydroxy-1-methyl-ethyl)-2-methyl-3H-benzofuran-5-yl]pyrazolo[1,5-a]pyrimidine-3-carboxamide]
Second: CN1CCCC(Oc2cc3c(cc2NC(=O)c2cnn4cccnc24)CC(C)(C)O3)C1 (stereo not drawn) [Example 304, N-(2,2-Dimethyl-6-((1-methylpiperidin-3-yl)oxy)-2,3-dihydrobenzofuran-5-yl)pyrazolo[1,5-α]pyrimidine-3-carboxamide]
The pKi of the first is 1.00 log units higher: 7.14 for the first, 6.14 for the second.

First: CC1(C)Cc2cc(NC(=O)c3cnn4cccnc34)c(OCc3c[nH]cn3)cc2O1 [Example 539, N-[6-(1H-Imidazol-4-ylmethoxy)-2,2-dimethyl-3H-benzofuran-5-yl]pyrazolo[1,5-a]pyrimidine-3-carboxamide]
Second: CC1(C)Cc2cc(NC(=O)c3cnn4cccnc34)c(OCC(F)F)cc2O1 [Example 302, N-(6-(2,2-Difluoroethoxy)-2,2-dimethyl-2,3-dihydrobenzofuran-5-yl)pyrazolo[1,5-α]pyrimidine-3-carboxamide]
The pKi of the first is 0.48 log units lower: 7.48 for the first, 7.96 for the second.

First: CC(C)N1Cc2cc(NC(=O)c3cnn4cc(C#N)cnc34)c(N3CCOCC3)cc2C1=O [Example 485, 6-cyano-N-(2-isopropyl-6-morpholino-1-oxo-isoindolin-5-yl)pyrazolo[1,5-a]pyrimidine-3-carboxamide]
Second: C[C@H](O)[C@@H](F)CN1Cc2cc(NC(=O)c3cnn4cccnc34)c(N3CCOCC3)cc2C1=O [Example 561, N-(2-((2S,3S)-2-fluoro-3-hydroxybutyl)-6-morpholino-1-oxoisoindolin-5-yl)pyrazolo[1,5-a]pyrimidine-3-carboxamide]
The pKi of the first is 0.78 log units lower: 7.18 for the first, 7.96 for the second.

First: Cn1cc(-c2cc3c(cc2NC(=O)c2cnn4cccnc24)CC(C)(C)O3)cn1 [Example 404, N-(2,2-Dimethyl-6-(1-methyl-1H-pyrazol-4-yl)-2,3-dihydrobenzofuran-5-yl)pyrazolo[1,5-a]pyrimidine-3-carboxamide]
Second: CC1(C)Cc2cc(NC(=O)c3cnn4cccnc34)c(N3CCC4CC43)cc2O1 (centres unmarked) [Example 240, N-(6-(2-Azabicyclo[3.1.0]hexan-2-yl)-2,2-dimethyl-2,3-dihydrobenzofuran-5-yl)pyrazolo[1,5-a]pyrimidine-3-carboxamide]
The pKi of the first is 0.38 log units lower: 7.19 for the first, 7.57 for the second.

Compared with `CC1(C)Cc2cc(NC(=O)c3cnn4cccnc34)c(N3CCN(Cc4ncc[nH]4)CC3)cc2O1` [Example 503, N-(6-(4-((1H-imidazol-2-yl)methyl)piperazin-1-yl)-2,2-dimethyl-2,3-dihydrobenzofuran-5-yl)pyrazolo[1,5-a]pyrimidine-3-carboxamide], `C[C@@H](O)CN1CCN(c2cc3c(cc2NC(=O)c2cnn4cccnc24)CC(C)(C)O3)CC1` [Example 475, (R)-N-(6-(4-(2-hydroxypropyl)piperazin-1-yl)-2,2-dimethyl-2,3-dihydrobenzofuran-5-yl)pyrazolo[1,5-a]pyrimidine-3-carboxamide] is 0.38 log units lower in pKi: 8.40 for the first, 8.02 for the second.

First: O=C(Nc1cc2c(cc1N1CCC(F)(CO)CC1)O[C@](CO)(C(F)(F)F)C2)c1cnn2cccnc12 (single isomer, unassigned) [Example 318]
Second: C[C@@]1(O)CCCN(c2cc3c(cc2NC(=O)c2cnn4cccnc24)C[C@@](C)(CO)O3)CC1 (single isomer, unassigned) [Example 331]
The pKi of the first is 0.45 log units higher: 8.37 for the first, 7.92 for the second.

Going from `CC1(C)Cc2cc(NC(=O)c3cnn4cc(CO)cnc34)c(N3CCOCC3)cc2O1` [Example 471, N-(2,2-dimethyl-6-morpholino-3H-benzofuran-5-yl)-6-(hydroxymethyl)pyrazolo[1,5-a]pyrimidine-3-carboxamide] to `O=C(Nc1cc2c(cc1N1CCOCC1)OC1(CCNC1)C2)c1cnn2cccnc12` (centres unmarked) [Example 393, N-(6-Morpholinospiro[3H-benzofuran-2,3′-pyrrolidine]-5-yl)pyrazolo[1,5-a]pyrimidine-3-carboxamide], the pKi falls from 8.19 to 7.62 (0.57 log units). The first binds more tightly here.

Going from `CC1(C)Cc2cc(NC(=O)c3cnn4cccnc34)c(N3CCC(C(N)C(F)(F)F)CC3)cc2O1` (centres unmarked) [Example 24, N-[6-[4-(1-Amino-2,2,2-trifluoro-ethyl)-1-piperidyl]-2,2-dimethyl-3H-benzofuran-5-yl]pyrazolo[1,5-a]pyrimidine-3-carboxamide] to `CC1(C)Cc2cc(NC(=O)c3cnn4cccnc34)c(N3CCC(F)(F)C3)cc2O1` [Example 217, N-(6-(3,3-difluoropyrrolidin-1-yl)-2,2-dimethyl-2,3-dihydrobenzofuran-5-yl)pyrazolo[1,5-a]pyrimidine-3-carboxamide], the pKi falls from 8.54 to 7.82 (0.72 log units).

Compared with `O=C(Nc1cc2c(cc1N1CCOCC1)C(=O)N(C[C@H]1CCC[C@H]1O)C2)c1cnn2cccnc12` [Example 560, N-[2-[[(1R,2R)-2-hydroxycyclopentyl]methyl]-6-morpholino-1-oxo-isoindolin-5-yl]pyrazolo[1,5-a]pyrimidine-3-carboxamide], `O=C(Nc1cc2c(cc1N1CCOCC1)C(=O)N(C1CCOCC1)C2)c1cnn2cccnc12` [Example 255, N-(6-Morpholino-1-oxo-2-tetrahydropyran-4-yl-isoindolin-5-yl)pyrazolo[1,5-a]pyrimidine-3-carboxamide] is 0.40 log units lower in pKi: 8.80 for the first, 8.40 for the second.

Going from `C[C@]1(CO)Cc2cc(NC(=O)c3cnn4cccnc34)c(N3C[C@@H]4C[C@H]3CO4)cc2O1` [Example 47, N—((R)-6-((1S,4S)-2-Oxa-5-azabicyclo[2.2.1]heptan-5-yl)-2-(hydroxymethyl)-2-methyl-2,3-dihydrobenzofuran-5-yl)pyrazolo[1,5-a]pyrimidine-3-carboxamide] to `CC1(C)CN(c2cc3c(cc2NC(=O)c2cnn4cccnc24)C[C@@](C)(CO)O3)CCO1` [Example 37, (S)—N-(6-(2,2-dimethylmorpholino)-2-(hydroxymethyl)-2-methyl-2,3-dihydrobenzofuran-5-yl)pyrazolo[1,5-a]pyrimidine-3-carboxamide], the pKi falls from 6.74 to 6.43 (0.31 log units).

Compared with `CC1(C)Cc2cc(NC(=O)c3cnn4cccnc34)c(OC[C@@H]3CCC(=O)N3)cc2O1` [Example 541, N-[2,2-dimethyl-6-[[(2S)-5-oxopyrrolidin-2-yl]methoxy]-3H-benzofuran-5-yl]pyrazolo[1,5-a]pyrimidine-3-carboxamide], `CC1(C)Cc2cc(NC(=O)c3cnn4cccnc34)c(O[C@H]3CCN(CC(N)=O)C3)cc2O1` [Example 447, (S)-N-(6-((1-(2-amino-2-oxoethyl)pyrrolidin-3-yl)oxy)-2,2-dimethyl-2,3-dihydrobenzofuran-5-yl)pyrazolo[1,5-a]pyrimidine-3-carboxamide] is 1.50 log units higher in pKi: 6.72 for the first, 8.22 for the second. The second binds more tightly here.

Compared with `C[C@]1(CO)Cc2cc(NC(=O)c3cnn4cc(Cl)cnc34)c(N3CCN(CC(F)F)CC3)cc2O1` [Example 170, (R)-6-Chloro-N-(6-(4-(2,2-difluoroethyl)piperazin-1-yl)-2-(hydroxymethyl)-2-methyl-2,3-dihydrobenzofuran-5-yl)pyrazolo[1,5-a]pyrimidine-3-carboxamide], `CC(C)C(=O)N1CCN(c2cc3c(cc2NC(=O)c2cnn4cccnc24)CC(C)(C)O3)CC1` [Example 219, N-(6-(4-isobutyrylpiperazin-1-yl)-2,2-dimethyl-2,3-dihydrobenzofuran-5-yl)pyrazolo[1,5-a]pyrimidine-3-carboxamide] is 1.43 log units lower in pKi: 8.52 for the first, 7.09 for the second. The first binds more tightly here.

`CC(C)(O)[C@H]1CC[C@H](N2Cc3cc(NC(=O)c4cnn5cccnc45)c(N4CCOCC4)cc3C2=O)CC1` [Example 548, trans-N-[2-[4-(1-Hydroxy-1-methyl-ethyl)cyclohexyl]-6-morpholino-1-oxo-isoindolin-5-yl]pyrazolo[1,5-a]pyrimidine-3-carboxamide] and `CC(C)(O)[C@H](F)CN1Cc2cc(NC(=O)c3cnn4cccnc34)c(N3CCC([C@@H](O)C(F)F)CC3)cc2C1=O` (single isomer, unassigned) [Example 283] are within 0.2 log units of each other in pKi: 8.54 for the first, 8.70 for the second.

Compared with `CNC(=O)C1CC1c1cc2c(cc1NC(=O)c1cnn3cccnc13)CC(C)(C)O2` (centres unmarked) [Example 395, N-(2,2-dimethyl-6-(2-(methylcarbamoyl)cyclopropyl)-2,3-dihydrobenzofuran-5-yl)pyrazolo[1,5-a]pyrimidine-3-carboxamide], `CC1(C)Cc2cc(NC(=O)c3cnn4cccnc34)c(N3CC[C@](C)(CO)C3)cc2O1` [Example 94, (S)—N-(6-(3-(hydroxymethyl)-3-methylpyrrolidin-1-yl)-2,2-dimethyl-2,3-dihydrobenzofuran-5-yl)pyrazolo[1,5-a]pyrimidine-3-carboxamide] is 1.07 log units higher in pKi: 6.47 for the first, 7.54 for the second.

Compared with `O=C(Nc1cc2c(cc1N1CCOCC1)OC1(CCN(CCO)CC1)C2)c1cnn2cccnc12` [Example 369, N-[1′-(2-Hydroxyethyl)-6-morpholino-spiro[3H-benzofuran-2,4′-piperidine]-5-yl]pyrazolo[1,5-a]pyrimidine-3-carboxamide], `CC1(C)Oc2cc(NC(=O)c3cnn4cccnc34)c(N3CCOCC3)cc2C1O` (centres unmarked) [Example 358, N-(3-Hydroxy-2,2-dimethyl-5-morpholino-2,3-dihydrobenzofuran-6-yl)pyrazolo[1,5-a]pyrimidine-3-carboxamide] is 1.88 log units lower in pKi: 8.17 for the first, 6.29 for the second.

`CC1(C)Cc2cc(NC(=O)c3cnn4cccnc34)c(N3CC4CCOC4C3)cc2O1` (centres unmarked) [Example 234, N-(6-(Hexahydro-5H-furo[2,3-c]pyrrol-5-yl)-2,2-dimethyl-2,3-dihydrobenzofuran-5-yl)pyrazolo[1,5-a]pyrimidine-3-carboxamide] and `O=C(CN1CCN(c2cc3c(cc2NC(=O)c2cnn4cccnc24)CC2(CCNCC2)O3)CC1)NC1CC1` [Example 375, N-(6-(4-(2-(Cyclopropylamino)-2-oxoethyl)piperazin-1-yl)-3H-spiro[benzofuran-2,4′-piperidin]-5-yl)pyrazolo[1,5-a]pyrimidine-3-carboxamide] are within 0.2 log units of each other in pKi: 7.48 for the first, 7.33 for the second.
